# Assay results taken from EP0385381A2, “Inhibitor of restenosis after percutaneous transluminal coronary angioplasty” (DAIICHI PHARMACEUTICAL CO., LTD., priority 1989, dated 1990).
# Where a name gives a salt, the structure may show the parent alone.
# System: post-PTCA restenosis
# Assay: Clinical study of inhibition of post-PTCA restenosis, evaluated from coronary angiographic findings
# Assay type: in vivo, patients with angina pectoris
# Procedure: In 18 patients with angina pectoris in whom elective PTCA was indicated, 6-(1-imidazolylmethyl)- 5,6,7,8-tetrahydronaphthalene-2-carboxylic acid hydrochloride hemihydrate (hereinafter, referred to as Compound A) was administered orally in a dose of 200 mg three times a day after each meal (600 mg/day) pre-angioplasty, beginning about three days before PTCA, and post angioplasty for 3 months (treated group). Coronary angiography was performed before, immediately after, and 3 months after PTCA. Based on the coronary angiographic findings, inhibition of restenosis of the right coronary artery, left anterior descending artery and left circumflex artery was evaluated, by site of lesion, according to the criteria in Table 1 shown below. Further, based on the results of the evaluation, overall efficacy evaluation by individual patient was made.
# In regard to luminal diameter: • 1. Excellent post-angioplasty course: unchanged or expanded • 2. Good post-angioplasty course: a decrease in luminal diameter of less than 50% • 3. Poor post-angioplasty course: a decrease in luminal diameter of 50% or more and less than 100% • 4. Worse post-angioplasty course: a decrease in luminal diameter of 100% or progression of stenosis as compared with pre-PTCA condition
# As controls (control group), placebo was similarly administered to 15 patients with angina pectoris in whom effective PTCA was indicated and coronary angiography was performed before and after PTCA.
# In both of the treated and control groups, calcium antagonists, viz. nifedipine and diltiazem, antianginal drugs, viz. ISDN and nicorandil, and antiarteriosclerotic agents, viz. elastase, etc. were used concurrently as necessary as shown in Table 2 below. However, there was no significant difference (χ² test) between the two groups in the use of concomitant drugs, as in other patient characteristics.
# [1] = Left Anterior Descending Artery, number of lesions rated (of 9), 600 mg/day oral, 3 months after PTCA
# [2] = Left Circumflex Artery, number of lesions rated (of 11), 600 mg/day oral, 3 months after PTCA
# [3] = Right Coronary Artery, number of lesions rated (of 8), 600 mg/day oral, 3 months after PTCA
# [4] = Total, number of lesions rated (of 28), Wilcoxon test P=0.100 vs control group
# [5] = number of patients rated (of 18), Wilcoxon test P=0.010 vs control group
smiles,measurement,setting,value
"O=C(O)c1ccc2c(c1)CCC(Cn1ccnc1)C2 (stereo not drawn) [Compound A, 6-(1-imidazolylmethyl)-5,6,7,8-tetrahydronaphthalene-2-carboxylic acid hydrochloride hemihydrate]","Overall Efficacy Evaluation, by Individual Patient: Excellent, Cumulative %",18 patients,(38.9%)
same,"Overall Efficacy Evaluation, by Individual Patient: Good, Cumulative %","18 patients, Excellent plus Good",(77.8%)
same,Evaluation of coronary angiographic findings by site of lesion: Excellent,[1],4
same,Evaluation of coronary angiographic findings by site of lesion: Good,[1],3
same,Evaluation of coronary angiographic findings by site of lesion: Poor,[1],1
same,Evaluation of coronary angiographic findings by site of lesion: Worse,[1],1
same,Evaluation of coronary angiographic findings by site of lesion: Excellent,[2],2
same,Evaluation of coronary angiographic findings by site of lesion: Good,[2],7
same,Evaluation of coronary angiographic findings by site of lesion: Poor,[2],1
same,Evaluation of coronary angiographic findings by site of lesion: Worse,[2],1
same,Evaluation of coronary angiographic findings by site of lesion: Excellent,[3],3
same,Evaluation of coronary angiographic findings by site of lesion: Good,[3],4
same,Evaluation of coronary angiographic findings by site of lesion: Poor,[3],0
same,Evaluation of coronary angiographic findings by site of lesion: Worse,[3],1
same,"Evaluation of coronary angiographic findings by site of lesion: Excellent, Cumulative %",Total of 28 lesions,(32.1%)
same,"Evaluation of coronary angiographic findings by site of lesion: Good, Cumulative %","Total of 28 lesions, Excellent plus Good",(83.1%)
same,Evaluation of coronary angiographic findings by site of lesion: Excellent,[4],9
same,Evaluation of coronary angiographic findings by site of lesion: Good,[4],14
same,Evaluation of coronary angiographic findings by site of lesion: Poor,[4],2
same,Evaluation of coronary angiographic findings by site of lesion: Worse,[4],3
same,"Overall Efficacy Evaluation, by Individual Patient: Excellent","number of patients rated (of 18), Wilcoxon test P=0.010, Fisher test (excellent ratings) P=0.009 vs control group",7
same,"Overall Efficacy Evaluation, by Individual Patient: Good",[5],7
same,"Overall Efficacy Evaluation, by Individual Patient: Poor",[5],3
same,"Overall Efficacy Evaluation, by Individual Patient: Worse",[5],1
